23 molecules from patent publication US11059780B2, “Substituted pyrrolidine compound and use thereof” (Takeda Pharmaceutical Company Limited, priority 2017, dated 2021) can be followed below.

This experiment addresses T1, human orexin type 2 receptor (hOX2R) (Homo sapiens, UniProt O43614).
T1 construct: expressed in transfected cells
T1 sequence (O43614 1-444): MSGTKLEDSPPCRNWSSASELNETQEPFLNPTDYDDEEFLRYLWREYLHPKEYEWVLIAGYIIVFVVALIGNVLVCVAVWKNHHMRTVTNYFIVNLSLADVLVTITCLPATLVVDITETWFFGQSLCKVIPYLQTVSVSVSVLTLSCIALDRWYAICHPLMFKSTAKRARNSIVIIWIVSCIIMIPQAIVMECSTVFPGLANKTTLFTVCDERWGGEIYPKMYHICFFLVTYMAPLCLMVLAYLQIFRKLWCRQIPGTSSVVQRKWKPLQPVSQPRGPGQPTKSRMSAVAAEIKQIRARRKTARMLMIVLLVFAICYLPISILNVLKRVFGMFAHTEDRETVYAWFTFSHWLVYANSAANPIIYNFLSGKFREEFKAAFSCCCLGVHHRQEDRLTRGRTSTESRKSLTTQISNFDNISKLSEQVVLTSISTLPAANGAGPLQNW
The experiment is described as follows: Measurement of orexin type 2 receptor agonist activity (Fluo-4 calcium fluorescence, CHO cells forcibly expressing human OX2 receptor). It counts as cell-based. As to conditions: test compound 3 μM, DMSO = 0%, orexin A (human) 10 nM = 100%. In short, it runs like this: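 CHO-dhfr cells stably expressing human OX2 receptor, loaded with Fluo-4 AM in HBSS/HEPES/BSA with probenecid, then given test compound at 3 μM. Calcium fluorescence recorded for about 2 min 40 s by FDSS; activity normalized to DMSO (0%) and 10 nM human orexin A (100%).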
Regarding `CO[C@@H]1CN(C(=O)C(F)(F)c2ccccc2)C[C@H]1Oc1cccc(CS(=O)(=O)N(C)C2CCOCC2)c1` (relative stereo) [Example 145, trans-1-(3-((1-(difluoro(phenyl)acetyl)-4-methoxypyrrolidin-3-yl)oxy)phenyl)-N-methyl-N-(tetrahydro-2H-pyran-4-yl)methanesulfonamide], the “OX2R agonist activity (3 μM, %)” value is given as 45%.

Turning to `CO[C@@H]1CN(C(=O)C2(c3ccccc3)CCC2)C[C@H]1Oc1cccc(CS(=O)(=O)N(C)C2CCOCC2)c1` (relative stereo) [Example 147, trans-1-(3-((4-methoxy-1-((1-phenylcyclobutyl)carbonyl)pyrrolidin-3-yl)oxy)phenyl)-N-methyl-N-(tetrahydro-2H-pyran-4-yl)methanesulfonamide], the “OX2R agonist activity (3 μM, %)” value is 37%.

As to `CCc1cccc(C)c1C(=O)N1C[C@@H](OC)[C@H](Oc2cccc(C(F)(F)S(=O)(=O)N(C)C3CCOCC3)c2)C1` (relative stereo) [Example 150, trans-1-(3-((1-(2-ethyl-6-methylbenzoyl)-4-methoxypyrrolidin-3-yl)oxy)phenyl)-1,1-difluoro-N-methyl-N-(tetrahydro-2H-pyran-4-yl)methanesulfonamide], the “OX2R agonist activity (3 μM, %)” value stood at 43%.

With `CO[C@@H]1CN(C(=O)c2ccccc2C2CC2)C[C@H]1Oc1cccc(CS(=O)(=O)N(C)C2CCOCC2)c1` (relative stereo) [Example 153, trans-1-(3-((1-(2-cyclopropylbenzoyl)-4-methoxypyrrolidin-3-yl)oxy)phenyl)-N-methyl-N-(tetrahydro-2H-pyran-4-yl)methanesulfonamide], the “OX2R agonist activity (3 μM, %)” value is 105%.

Take `CCc1cccc(C)c1C(=O)N1C[C@@H](OC)[C@H](Oc2cccc(C(F)S(=O)(=O)N(C)C3CCOCC3)c2)C1` (relative stereo) [Example 154, trans-1-(3-((1-(2-ethyl-6-methylbenzoyl)-4-methoxypyrrolidin-3-yl)oxy)phenyl)-1-fluoro-N-methyl-N-(tetrahydro-2H-pyran-4-yl)methanesulfonamide]: the “OX2R agonist activity (3 μM, %)” value is given as 99%.

Take `CCc1cccc(C)c1C(=O)N1C[C@@H](OC)[C@H](Oc2cccc(CS(=O)(=O)N(C)C3CCOCC3)c2)C1` (relative stereo) [Example 155, trans-1-(3-((-1-(2-ethyl-6-methylbenzoyl)-4-methoxypyrrolidin-3-yl)oxy)phenyl)-N-methyl-N-(tetrahydro-2H-pyran-4-yl)methanesulfonamide]: the “OX2R agonist activity (3 μM, %)” value came to 108%.

As for `CO[C@@H]1CN(C(=O)c2cc(C)ccc2C)C[C@H]1Oc1cccc(CS(=O)(=O)N(C)C2CCOC(C)(C)C2)c1` (relative stereo) [Example 156, trans-1-(3-((1-(2,5-dimethylbenzoyl)-4-methoxypyrrolidin-3-yl)oxy)phenyl)-N-(2,2-dimethyltetrahydro-2H-pyran-4-yl)-N-methylmethanesulfonamide], the “OX2R agonist activity (3 μM, %)” value is 92%.

For the molecule `CO[C@@H]1CN(C(=O)c2c(C)cccc2C2CC2)C[C@H]1Oc1cccc(CS(=O)(=O)N(C)C2CCOCC2)c1` (relative stereo) [Example 160, trans-1-(3-((1-(2-cyclopropyl-6-methylbenzoyl)-4-methoxypyrrolidin-3-yl)oxy)phenyl)-N-methyl-N-(tetrahydro-2H-pyran-4-yl)methanesulfonamide], the “OX2R agonist activity (3 μM, %)” value was determined as 111%.

With `COc1nccc(C)c1C(=O)N1C[C@@H](OC)[C@H](Oc2cccc(CS(=O)(=O)N(C)C3CCOCC3)c2)C1` (relative stereo) [Example 161, trans-1-(3-((4-methoxy-1-((2-methoxy-4-methylpyridin-3-yl)carbonyl)pyrrolidin-3-yl)oxy)phenyl)-N-methyl-N-(tetrahydro-2H-pyran-4-yl)methanesulfonamide], the “OX2R agonist activity (3 μM, %)” value stood at 102%.

As for `COc1ccc(C)c(C)c1C(=O)N1C[C@@H](OC)[C@H](Oc2cccc(CS(=O)(=O)N(C)C3CCOCC3)c2)C1` (relative stereo) [Example 162, trans-1-(3-((4-methoxy-1-(6-methoxy-2,3-dimethylbenzoyl)pyrrolidin-3-yl)oxy)phenyl)-N-methyl-N-(tetrahydro-2H-pyran-4-yl)methanesulfonamide], the “OX2R agonist activity (3 μM, %)” value worked out at 96%.

Regarding `CO[C@@H]1CN(C(=O)c2c(C)cccc2C2CC2)C[C@H]1Oc1cccc(OS(=O)(=O)N(C)C2CCOCC2)c1` (relative stereo) [Example 163, trans-3-((1-(2-cyclopropyl-6-methylbenzoyl)-4-methoxypyrrolidin-3-yl)oxy)phenyl methyl(tetrahydro-2H-pyran-4-yl)sulfamate], the “OX2R agonist activity (3 μM, %)” value was 97%.

`CCc1ccc(C)c(C(=O)N2C[C@@H](OC)[C@H](Oc3cccc(CS(=O)(=O)N(C)C4CCOCC4)c3)C2)c1OC` (relative stereo) [Example 164, trans-1-(3-((1-(3-ethyl-2-methoxy-6-methylbenzoyl)-4-methoxypyrrolidin-3-yl)oxy)phenyl)-N-methyl-N-(tetrahydro-2H-pyran-4-yl)methanesulfonamide]: the “OX2R agonist activity (3 μM, %)” value is 86%.

In the case of `CO[C@@H]1CN(C(=O)c2c(C)cccc2C2CC2)C[C@H]1Oc1cccc(NS(=O)(=O)N(C)C2CCOCC2)c1` (relative stereo) [Example 165, trans-N′-(3-((1-(2-cyclopropyl-6-methylbenzoyl)-4-methoxypyrrolidin-3-yl)oxy)phenyl)-N-methyl-N-(tetrahydro-2H-pyran-4-yl)sulfuric diamide], the “OX2R agonist activity (3 μM, %)” value is listed as 108%.

On to `CO[C@@H]1CN(C(=O)c2c(C)cccc2C2CC2)C[C@H]1Oc1cccc(OS(=O)(=O)N2CCOCC2)c1` (relative stereo) [Example 166, trans-3-((1-(2-cyclopropyl-6-methylbenzoyl)-4-methoxypyrrolidin-3-yl)oxy)phenyl morpholine-4-sulfonate], for which the “OX2R agonist activity (3 μM, %)” value was 41%.

As for `Cc1ccc(C)c(C(=O)N2CC[C@H](Oc3cccc(CS(=O)(=O)N4CCCC4c4ccccn4)c3)C2)c1` (stereo partly drawn) [Example 25, (2,5-dimethylphenyl)((3S)-3-(3-(((2-(pyridin-2-yl)pyrrolidin-1-yl)sulfonyl)methyl)phenoxy)pyrrolidin-1-yl)methanone], the “OX2R agonist activity (3 μM, %)” value came to 29%.

In the case of `CO[C@@H]1CN(C(=O)c2cc(C)ccc2C)C[C@H]1Oc1cccc(NS(=O)(=O)N2CCC23CCOC3)c1` (stereo partly drawn) [Example 30, N-(3-(((3R,4R)-1-(2,5-dimethylbenzoyl)-4-methoxypyrrolidin-3-yl)oxy)phenyl)-6-oxa-1-azaspiro[3.4]octane-1-sulfonamide], the “OX2R agonist activity (3 μM, %)” value came to 68%.

For `COC1CN(C(=O)c2cc(C)ccc2C)CC1Oc1cccc(CS(=O)(=O)N2CCCC2c2ccccc2C)c1` (stereo not drawn) [Example 41, trans-(2,5-dimethylphenyl)(3-methoxy-4-(3-(((2-(2-methylphneyl)pyrrolidin-1-yl)sulfonyl)methyl)phenoxy)pyrrolidin-1-yl)methanone], the “OX2R agonist activity (3 μM, %)” value is on record as 75%.

Take `CO[C@@H]1CN(C(=O)c2cc(C)ccc2C)C[C@H]1Oc1cccc(CS(=O)(=O)N2CCC[C@H]2c2ccccn2)c1` [Example 57, (2,5-dimethylphenyl)((3R,4R)-3-methoxy-4-(3-((((2S)-2-(pyridin-2-yl)pyrrolidin-1-yl)sulfonyl)methyl)phenoxy)pyrrolidin-1-yl)methanone]: the “OX2R agonist activity (3 μM, %)” value was determined as 55%.

Take `CO[C@@H]1CN(C(=O)c2cc(C)ccc2C)C[C@H]1Oc1cccc(NS(=O)(=O)N2CC3CC3C2)c1` (stereo partly drawn) [Example 109, N-(3-(((3R,4R)-1-(2,5-dimethylbenzoyl)-4-methoxypyrrolidin-3-yl)oxy)phenyl)-3-azabicyclo[3.1.0]hexane-3-sulfonamide]: the “OX2R agonist activity (3 μM, %)” value came to 84%.

Take `CO[C@@H]1CN(C(=O)c2c(C)cccc2C)C[C@H]1Oc1cccc(NS(=O)(=O)N2CC3CC3C2)c1` (stereo partly drawn) [Example 120, N-(3-(((3R,4R)-1-(2,6-dimethylbenzoyl)-4-methoxypyrrolidin-3-yl)oxy)phenyl)-3-azabicyclo[3.1.0]hexane-3-sulfonamide]: the “OX2R agonist activity (3 μM, %)” value came to 107%.

In the case of `COc1cccc(C)c1C(=O)N1C[C@@H](OC)[C@H](Oc2cccc(NS(=O)(=O)N3CC4CC4C3)c2)C1` (stereo partly drawn) [Example 121, N-(3-(((3R,4R)-4-methoxy-1-(2-methoxy-6-methylbenzoyl)pyrrolidin-3-yl)oxy)phenyl)-3-azabicyclo[3.1.0]hexane-3-sulfonamide], the “OX2R agonist activity (3 μM, %)” value came to 114%.

In the case of `COc1cccc(C)c1C(=O)N1CC(OC)C(Oc2cccc(CS(=O)(=O)N3CCCC3c3ccc(C)nc3C)c2)C1` (stereo not drawn) [Example 124, trans-3-(3-(((2-(2,6-dimethylpyridin-3-yl)pyrrolidin-1-yl)sulfonyl)methyl)phenoxy)-4-methoxypyrrolidin-1-yl)(2-methoxy-6-methylphenyl)methanone], the “OX2R agonist activity (3 μM, %)” value is listed as 99%.

In the case of `CCc1ccccc1C(=O)N1C[C@@H](OC)[C@H](Oc2cccc(NS(=O)(=O)N3CC4CC4C3)c2)C1` (stereo partly drawn) [Example 129, N-(3-(((3R,4R)-1-(2-ethylbenzoyl)-4-methoxypyrrolidin-3-yl)oxy)phenyl)-3-azabicyclo[3.1.0]hexane-3-sulfonamide], the “OX2R agonist activity (3 μM, %)” value worked out at 96%.
